According to ChEMBL document CHEMBL5523667, “Blood-stage antimalarial activity, favourable metabolic stability and in vivo toxicity of novel piperazine linked 7-chloroquinoline-triazole conjugates” (Eur J Med Chem, 2024):
The source made the active and inactive calls. No cut-off for these calls is given here.

Columns and labels:
[1] = Toxicity in mouse assessed as effect on exploratory activity at 100 to 200 mg/kg measured over 5 mins by open field arena test; assay type: organism-based; details: in vivo, dose 100-200 mg/kg
[2] = system: Plasmodium berghei; test: Antimalarial activity against Plasmodium berghei ANKA infected in female BALB/c mouse assessed as reduction in parasitemia at 50 to 100 mg/kg, ip administered daily for 7 days by Giemsa staining based light microscopy; assay type: functional, organism-based; details: dose 50-100 mg/kg, time 7.0 day
[3] = system: Plasmodium falciparum; test: Synergistic antimalarial activity against chloroquine-sensitive Plasmodium falciparum 3D7 assessed as fractional inhibitory concentration incubated for 60 hrs in presence of chloroquine by SYBR Green staining based analysis; assay type: functional
[4] = Toxicity in mouse assessed as latency time to the central area at 100 mg/kg by open field test (reference value: 106.48 +/- 43.19 sec); assay type: organism-based; details: in vivo, 43 s
[5] = system: Plasmodium berghei; test: (§1) Antimalarial activity against Plasmodium berghei ANKA infected in BALB/c mouse assessed as reduction in gametocyte development at 50 to 100 mg/kg, ip preadministered with phenylhydrazine for 3 days followed by compound administration and measured after 4 days by Giemsa staining based light microscopic analysis; assay type: functional, organism-based; details: dose 50-100 mg/kg, time 4.0 day
[6] = molecular target: T1, Falcipain 2 (Plasmodium falciparum, UniProt Q9N6S8); test: Competitive inhibition of N-terminal 6His-tagged recombinant Plasmodium falciparum FP2 expressed in Escherichia coli M15 assessed as inhibition constant using Z-Phe-Arg-AMC as substrate measured after 30 mins by microplate reader analysis
T1 sequence (Q9N6S8 whole entry): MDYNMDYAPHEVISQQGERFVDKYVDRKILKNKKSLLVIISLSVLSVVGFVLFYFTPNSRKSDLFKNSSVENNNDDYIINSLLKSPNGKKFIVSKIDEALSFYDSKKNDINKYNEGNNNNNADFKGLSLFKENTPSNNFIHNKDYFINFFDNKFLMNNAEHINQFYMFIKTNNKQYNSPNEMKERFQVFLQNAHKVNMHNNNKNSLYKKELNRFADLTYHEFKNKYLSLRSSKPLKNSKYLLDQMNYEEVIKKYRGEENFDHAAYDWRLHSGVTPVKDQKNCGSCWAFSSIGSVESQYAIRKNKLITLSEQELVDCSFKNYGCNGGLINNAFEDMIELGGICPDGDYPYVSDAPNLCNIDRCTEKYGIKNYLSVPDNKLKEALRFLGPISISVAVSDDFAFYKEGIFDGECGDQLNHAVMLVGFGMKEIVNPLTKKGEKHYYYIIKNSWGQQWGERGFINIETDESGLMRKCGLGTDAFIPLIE

[7] = Toxicity in mouse assessed as cell death in spleen at 100 to 200 mg/kg measured after 7 days by hematoxylin and eosin staining based analysis; assay type: organism-based; details: in vivo, 168 h, dose 100-200 mg/kg, time 7 day
[8] = Toxicity in mouse assessed as effect on water intake at 100 to 200 mg/kg measured for 7 days; assay type: organism-based; details: in vivo, 168 h, dose 100-200 mg/kg, time 7 day
[9] = molecular target: T2, Falcipain 2 (Plasmodium falciparum) (UniProt Q9N6S8); test: Inhibition of N-terminal 6His-tagged recombinant Plasmodium falciparum FP2 expressed in Escherichia coli M15 using Z-Phe-Arg-AMC as substrate at 5 uM measured after 30 mins by microplate reader analysis relative to control
T2 sequence (whole entry): T1 sequence (Q9N6S8 whole entry)

[10] = Toxicity in mouse assessed as frequency of rearing activity at 100 mg/kg measured over 5 mins by open field arena test (reference value: 18.14 +/- 2.6 sec); assay type: organism-based; details: in vivo
[11] = system: Plasmodium falciparum; test: Antimalarial activity against ring stage chloroquine-resistant Plasmodium falciparum RKL9 assessed as inhibition of parasite growth by SYBR green I dye based assay; assay type: functional, organism-based
[12] = Cytotoxicity against CHO cells assessed as reduction in cell viability by MTT assay; assay type: toxicity, cell-based; details: Chinese hamster (Cricetulus griseus)
[13] = Toxicity in mouse assessed as total distance travelled at 200 mg/kg measured over 5 mins by open field arena test (reference value: 12.45 +/- 1.48 meter); assay type: organism-based; details: in vivo
[14] = Toxicity in mouse assessed as latency time to the central area at 200 mg/kg by open field test (reference value: 106.48 +/- 43.19 sec); assay type: organism-based; details: in vivo, 43 s
[15] = molecular target: T3, Falcipain-3 (Plasmodium falciparum 3D7, UniProt Q8IIL0); test: Binding affinity to N-terminal 6His-tagged recombinant Plasmodium falciparum FP3 expressed in Escherichia coli M15 assessed as dissociation constant incubated for 15 mins in presence of lysine reactive dye by microscale thermophoretic analysis
T3 sequence (Q8IIL0 whole entry): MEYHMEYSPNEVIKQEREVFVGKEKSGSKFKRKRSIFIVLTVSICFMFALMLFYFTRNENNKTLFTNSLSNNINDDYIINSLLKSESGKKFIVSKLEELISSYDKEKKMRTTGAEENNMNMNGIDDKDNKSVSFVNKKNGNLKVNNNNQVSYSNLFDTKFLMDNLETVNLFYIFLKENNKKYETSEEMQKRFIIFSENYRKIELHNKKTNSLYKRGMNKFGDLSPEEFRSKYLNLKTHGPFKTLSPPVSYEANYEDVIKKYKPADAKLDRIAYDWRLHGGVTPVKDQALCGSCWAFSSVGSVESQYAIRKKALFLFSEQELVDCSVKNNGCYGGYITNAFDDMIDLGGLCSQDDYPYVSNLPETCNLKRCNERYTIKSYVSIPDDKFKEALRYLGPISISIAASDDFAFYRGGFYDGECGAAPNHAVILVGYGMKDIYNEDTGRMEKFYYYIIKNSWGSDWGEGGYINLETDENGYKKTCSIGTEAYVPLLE

[16] = system: Hemozoin; test: Inhibition of beta-hematin formation in Plasmodium falciparum by UV-visible SpectraMax P340 plate reader analysis
[17] = molecular target: T2, Falcipain 2 (Plasmodium falciparum); test: Inhibition of N-terminal 6His-tagged recombinant Plasmodium falciparum FP2 expressed in Escherichia coli M15 using Z-Phe-Arg-AMC as substrate at 10 uM measured after 30 mins by microplate reader analysis relative to control
[18] = Stability of the compound in tris buffer at pH 7.4 at 1 uM measured after 120 mins by LC-MS/MS analysis; assay type: physicochemical; details: pH 7.4, 2 h
[19] = Stability of the compound in simulated gastric fluid at pH 1.2 at 1 uM measured after 120 mins by LC-MS/MS analysis; assay type: ADME; details: simulated gi fluid, pH 1.2, 2 h
[20] = Toxicity in mouse assessed as cell necrosis in kidney at 100 to 200 mg/kg measured after 7 days by hematoxylin and eosin staining based analysis; assay type: organism-based; details: in vivo, 168 h, dose 100-200 mg/kg, time 7 day
[21] = system: Plasmodium falciparum; test: Antimalarial activity against ring stage chloroquine-sensitive Plasmodium falciparum 3D7 assessed as inhibition of parasite growth by SYBR green I dye based assay; assay type: functional, organism-based
[22] = system: Plasmodium berghei; test: as §1, with “clearance of gametocytes” for “reduction in gametocyte development”, “ip p” for “ip”, “5” for “4”, “analysis relative to control” for “analysis”; assay type: functional, organism-based; details: dose 50-100 mg/kg, time 5.0 day
[23] = Toxicity in mouse assessed as cell apoptosis in spleen at 100 to 200 mg/kg measured after 7 days by hematoxylin and eosin staining based analysis; assay type: organism-based; details: in vivo, 168 h, dose 100-200 mg/kg, time 7 day
[24] = Toxicity in mouse assessed as latency to fall off the rotating rod by measuring neuromuscular coordination index at 100 mg/kg by rotarod apparatus (reference value: 12.45 +/- 1.48 ); assay type: organism-based; details: in vivo

O=C(Cn1cc(CN2CCN(c3ccnc4cc(Cl)ccc34)CC2)nn1)Nc1cccc([N+](=O)[O-])c1
Activity [1]: Non-Toxic | Activity [2]: Active | fractional inhibitory concentration index (FICI) [3]: 0.5 | Time [4]: 56.23 s | Activity [5]: Active | Ki [6]: 0.527 µM | Activity [7]: Non-Toxic | Activity [8]: Non-Toxic | inhibition [9]: 27.3% | Activity [10]: 14.17 s | IC50 [11]: 1.8 µM | IC50 [12]: 148 µM | Activity [13]: 10.75 m | Time [14]: 54.39 s | Kd [15]: 54.4 µM | IC50 [16]: 19.9 µM | inhibition [17]: 54.3% | Stability [18]: Stable | Stability [19]: Stable | Activity [20]: Non-Toxic | IC50 [21]: 0.97 µM | Activity [22]: Active | Activity [23]: Non-Toxic | Activity_index [24]: 11.53
